# Patent US20070036871A1, “TECHNIQUE FOR TREATMENT AND PREVENTION OF FUNGAL DISEASES IN GROWING GRAPES BY APPLICATION OF A SODIUM CHLORITE, UREA SULFURIC ACID SOLUTION” (priority 2005, published 2007)
# “And” between values parts separate entries of the source, which are not always exact repeats. Identical values can stand only once.
# Test system: powdery mildew
# Assay: Field trials of foliar fungicide treatments on Carignane grape vines against powdery mildew (Example IV)
# Assay type: in vivo
# [1] = individual plot data, rated July 3 after June 22 treatment
# [2] = individual plot data, rated July 12 after July 3 treatment
# [3] = individual plot data, rated June 22 after June 12 treatment
# [4] = rated July 3 after June 22 treatment (10 days after second treatment), average of plots
# [5] = rated July 12 after July 3 treatment (10 days after third treatment), average of plots
# [6] = rated June 22 after June 12 treatment (10 days after first treatment), average of plots
smiles,measurement,setting,value
"[S] [4-6 lb/acre sulphur, sulphur]",% fruit w/ symptoms,[1],20% and 40% and 15% and 5%
same,% leaves w/ symptoms,[1],10% and 20% and 2% and 8%
same,% severity of infected fruit,[1],15% and 30% and 10% and 5%
same,% severity of infected leaves,[1],15% and 20% and 4% and 5%
same,% fruit w/ symptoms,[2],10% and 60% and 40% and 20%
same,% leaves w/ symptoms,[2],2% (3×) and 15%
same,% severity of infected fruit,[2],10% (2×) and 40% and 25%
same,% severity of infected leaves,[2],5% (3×) and 2%
same,% fruit w/ symptoms,[3],30% and 40% and 20% and 15%
same,% leaves w/ symptoms,[3],2% (2×) and 20% and 5%
same,% severity of infected fruit,[3],8% and 30% and 6% and 20%
same,% severity of infected leaves,[3],2% (2×) and 18% and 5%
same,% fruit w/ symptoms,[4],20%
same,% leaves w/ symptoms,[4],10%
same,% severity of infected fruit,[4],15%
same,% severity of infected leaves,[4],11% and 20%
same,% fruit w/ symptoms,[5],32.5%
same,% leaves w/ symptoms,[5],5.25%
same,% severity of infected fruit,[5],21.25%
same,% severity of infected leaves,[5],4.25%
same,% fruit w/ symptoms,[6],26.25%
same,% leaves w/ symptoms,[6],7.25%
same,% severity of infected fruit,[6],16%
same,% severity of infected leaves,[6],6.75%
same,fungal disease control (in words),ten days after the third treatment,substantially lower disease infection in leaves over the low rate NaClO2+US acid treatment
